Test [1] concerns H3K4me3 at ISG54, ISG56 and 6-16 promoters. Kind of test: ChIP for H3K4me3 at ISG promoters in 2fTGH cells. In kind it is cell-based, human. The following applies: co-treatment with IFN-α. The procedure: FIG. 3. […] (A) 2fTGH cells were either left untreated or treated with IFN-α in the absence or presence of TSA for the indicated time (min). ChIP assays were performed with antibodies against Pol II and recovered ISG56 promoter sequences were quantified by real-time PCR relative to input and represented as fold induction relative to untreated cells. (B) As in A, except that antibodies against phosphorylated Pol II at serine-5 in the CTD were used for immunoprecipitation, following 60 min IFN-α treatments. Recovered ISG54, ISG56 and ISG15 promoter sequences were quantified by real-time PCR relative to input and represented as fold induction relative to untreated cells. (C) As in A, except that cells were treated with IFN-α for 60 min and proximal, middle and distal fragments along the ISG54 gene (left panel) and ISG56 gene (right panel) were assayed. (D) As in A, except that antibodies against trimethylated lysine-4 on histone H3 were used. Promoter regions of ISG54, ISG56 and 6-16 genes were quantified by real-time PCR and reported as fold over the signal detected with a non-specific antibody.
Chromatin immunoprecipitation was performed as follows. […] Immunoprecipitated DNA sequences were recovered by alcohol precipitation and quantified by real-time PCR compared with input genomic DNA. […]

Test [2] has as its system ISG54 promoter nucleosomes in FS2 human diploid fibroblasts. The test is described as follows: MNase-PCR nucleosome mapping of the ISG54 promoter in FS2 fibroblasts. The format is cell-based. From the text:
FIG. 2. […] (A) Nuclear extracts from HEK293T cells expressing activated recombinant ISGF3 (STAT1, STAT2, IRF9 and JAK1) or transfected with vector (Ctl) were programmed with G6TI-CAT (G6TI) or p107 (ISG54) templates. Radiolabeled RNA transcripts were resolved by polyacrylamide-urea gel electrophoresis. Arrow and arrowhead indicate position of the transcripts from G6TI-CAT and p107, respectively. (B) HeLa cells were either left untreated or treated with IFN-α in the absence or presence of TSA (TSA in vivo) before nuclei were isolated for run-on transcription. Where indicated, TSA was added to the elongation reaction in vitro (TSA in vitro). Specific signals from γ-actin, ISG15, ISG56, 6-16, 9-27, IRF9 and GBP transcription were quantified following filter hybridization and normalized to the signal for GAPDH, arbitrarily set to 100. Representative data from three independent experiments are shown. FS2 human diploid fibroblasts were starved for 72 h before being treated with IFN-α for 7.5 h in the absence or presence of TSA. Mononucleosomal DNA fraction was purified from MNase-digested nuclei and analyzed for nucleosome positions by PCR quantitation of protected fragments. All samples were quantified by real-time PCR, except the—53—+1 ISG54 fragment, which was quantified by gel electrophoresis (C). […]

With `CC(/C=C/C(=O)NO)=C\[C@@H](C)C(=O)c1ccc(N(C)C)cc1` [TSA, Trichostatin A], in test [1], the “level of H3K4me3 on ISG promoters” value is given as “neither IFN stimulation nor TSA co-treatment significantly affected”. For the same molecule, in test [2] (MNase), the “nuclease sensitivity of segments around TATA box and initiation site” value is on record as “minimally affected”. Moreover, in test [2] (co-treatment with IFN), the “IFN-induced increase of nuclease sensitivity of −92 to −33 ISRE segment” value is “not prevented”.

For the origin of these results see patent publication US20190351012A1, “TARGETING OF INTERFERON-STIMULATED GENE EXPRESSION TO TREAT INTERFERONOPATHIES” (New York University, priority 2018, published 2019).
